Source: PMC4976923, “Potent Allosteric Dengue Virus NS5 Polymerase Inhibitors: Mechanism of Action and Resistance Profiling” (PLoS Pathogens, 2016)

How the values were obtained:
[1] = test system: DENV4 FL NS5; assay: Thermo-denaturation assay, recombinant FL NS5; assay type: binding; conditions: for Tm change compared to DMSO control, DENV4 FL NS5 WT: 50 µM compound (Fig 7 in S1 Text); for Protein melting temperature, Tm, DENV4 FL NS5 WT: 50 µM compound, DMSO 37.5 (Fig 7 in S1 Text); for Protein melting temperature Tm with compound, FL NS5: +50 μM compound, DMSO control 42.5
Protocol: Site-directed alanine mutations of DENV4 FL NS5 cDNA were performed using pET28-D4-MY01-22713 NS5FL [23] as a template, according to the manufacturer’s protocol (Stratagene, USA). Protein expressions of DENV1-4 FL NS5 and their stability analyses by thermo-fluorescence were performed as described previously. DENV de novo initiation and elongation FAPA assays were earlier described. […]
(§1) 6 Fi g .5. Ef fects of N -pocket compounds on DENV pol ymerase thermo-stability. Melting
(§2) 7 temperatur e (Tm) w as ass essed b y thermo-d enatur ation in presence of the S YPRO Oran ge
(§3) 8 dye as described in Materials and Methods. (A-F) Representative meltin g curves of DEN V4
10 inhibitors or 5 % DMSO control. […]
(§4) 16 controls treated with DMSO.

[2] = target: T1, DENV2 FL NS5 E802D (Dengue virus type 2, UniProt P14340, E3293D); assay type: binding; conditions: 50 µM compound; for Protein melting temperature, Tm, DENV2 FL NS5 E802D: DMSO 36
T1 construct: Recombinant DENV2 (A, C) and DENV4 (B, D) FL NS5 proteins bearing single or double amino acid changes; made in house

[3] = test system: Compound 29-resistant DENV2-NGC EGFP-replicon cells; assay: Compound-resistant DENV2-NGC EGFP-replicon cells; assay type: cell-based; conditions: Dengue virus, DENV2, 48 h, read-out: EC50, Compound 29-resistant DENV2-NGC EGFP-replicon cells
[4] = test system: DENV4, strain MY01-22713; conditions: A549; 48 hr; read-out: DENV4 HCI, EC50 (converted); cited from earlier work
[5] = test system: WNV (New York strain 3356) replicon; assay: WNV replicon cell-based assay; conditions: 0–50 μM, 2 days
Protocol: 4 Compound testing in cells transiently expressing DENV and WNV replicon. R enilla
5 luciferas e sub-genomic replicon of DENV2 (strai n New Guinea C) or WN V (New York
6 strain 3356) cloned into the pACYC plasmid, was in vitro transcribed using a T7 mMessage
7 mMachine kit (Ambion, Austin, TX) after linearization with ClaI, as descri bed previousl y
8 [5]. A549 cells were electroporated with 10 μg of replicon RNA using a GenePulser Xcell
9 system (Bio-Rad, H ercul es, CA) with 3 pulses, at 450 V, 25 µF, at 5- 10 sec intervals.
10 Transfected cells wer e seeded into a 96-w ell plate at 1.5 × 10^4 cells per well, followed b y
11 treatment with the compound or the dimethyl sulfoxide (DMSO) control and incubation at
12 37°C in 5 % CO2. At various time points post-transfection, cells were w ash ed once with
13 phosphate-buffered saline (PBS) and l ysed in 20 μl 1× l ysis buffer (Promega, USA) and
14 assa yed fo r luciferase si gnals with a Clarit y luminescence microplate reader (BioT ek, USA)
15 using the renilla luciferase assa y s ystem (Promega, USA). CellTiter -Glo reagent was added to
16 the l ysates to determine t he c ytotoxicit y effects of compounds.Duplicate w ells were seeded
WNV ( New York strain 3356) replicon cDNA was electropo rated in BHK -21 cells, […]
4 from replicon cells were determined b y measuring cellular renilla luciferase levels. […]
5 points were measured in duplicates.

[6] = test system: DENV2-NGC virus L512V; assay type: cell-based; conditions: A549, MOI = 0.2; 48 hr; plaque assay
[7] = test system: DENV1, strain MY97-10245; conditions: A549; 48 hr; read-out: DENV1 HCI, EC50; cited from earlier work
[8] = in vitro; assay type: cell-based; conditions: human; 4–5 days
[9] = target: T2, DENV4 FL NS5 Q802N (Dengue virus type 4, UniProt P09866, Q3290N); assay type: binding; conditions: 50 µM compound; for Protein melting temperature, Tm, DENV4 FL NS5 Q802N: DMSO 37
T2 construct: made in house

[10] = test system: Human rhinovirus (7 serotypes); assay: Human rhinovirus cytopathic inhibition in HeLa cells; assay type: cell-based; conditions: Rhinovirus A, 120 h, cytopathic inhibition over 5 days
[11] = target: T3, FL NS5 from BHK-21 DENV2-NGC replicon cell lysate (Dengue virus type 2, UniProt P14340); assay: Cellular thermal shift assay with replicon cell lysate; assay type: binding; conditions: +50 μM compound; DMSO control 42.5
T3 construct: FL NS5 from DENV-replicon lysates; expressed in transfected cells; host or cells: BHK-21 cells carrying a DENV2 (New Guinea C) sub-genomic replicon
Description: 1 Fig. 4.Ph ylo genetic tr ee repres enting relatedn ess of N-pocket amino acid residues from
2 different members of the Flavivirus famil y, derived from Clustal Omega program [ 8] .
as §1, §2, §3
10 inhibitors or 5 % DMSO control. (G) Cellular thermal shifts assays [ 9] wer e perfo rmed with
Bri efl y, l ysates w er e
12 incubated with compounds or 5 % DMSO for 1 hr at 4 °C, followed b y heating at 30- 70 °C.
13 Samples were spun and the supernat ants loaded onto 12 % SDS -PAGE gel s , followed b y gel
14 electrophoresis and west ern blotting with anti- DE NV2 NS5 antibody (GeneTex, USA). Table
as §4
(1 picture or pasted object on this page, not shown here)

[12] = target: DENV4 RdRp (Dengue virus type 4, UniProt P09866); assay: Surface plasmon resonance binding assay (Biacore T200)
Chain of DENV4 RdRp (P09866 2753-3387): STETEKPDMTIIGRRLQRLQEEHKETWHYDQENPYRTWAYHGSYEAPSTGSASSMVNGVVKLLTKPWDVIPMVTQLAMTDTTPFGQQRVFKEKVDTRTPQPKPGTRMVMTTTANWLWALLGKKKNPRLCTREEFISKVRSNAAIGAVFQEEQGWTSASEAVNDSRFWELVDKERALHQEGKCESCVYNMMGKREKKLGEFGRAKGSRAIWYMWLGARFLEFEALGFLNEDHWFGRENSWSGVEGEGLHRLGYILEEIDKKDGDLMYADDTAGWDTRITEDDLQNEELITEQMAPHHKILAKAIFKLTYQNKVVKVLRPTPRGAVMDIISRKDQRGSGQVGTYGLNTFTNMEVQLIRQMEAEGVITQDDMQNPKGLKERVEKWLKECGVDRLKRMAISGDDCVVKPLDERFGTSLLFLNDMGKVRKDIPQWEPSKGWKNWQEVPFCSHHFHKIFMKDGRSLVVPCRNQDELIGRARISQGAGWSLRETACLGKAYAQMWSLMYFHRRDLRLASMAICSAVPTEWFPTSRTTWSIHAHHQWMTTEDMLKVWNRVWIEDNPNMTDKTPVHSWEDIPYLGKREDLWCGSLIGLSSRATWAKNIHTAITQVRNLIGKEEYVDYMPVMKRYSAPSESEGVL
Protocol: Biotinylated DENV3 and DENV4 RdRp were captured on flow cells 2 and 4 respectively in 50 mM Tris/HCl, pH 7.5, 200 mM NaCl, 2 mM DTT, 0.05% Tween 20, and 3% DMSO at 4°C. Flow cell 1 and 3 were left blank to serve as a reference [37]. […] Compounds were injected at a flow rate of 30 μL/min, with 45 s contact time and 600 s dissociation, starting from the DMSO control and finishing with the highest concentration.

T2 sequence (P09866 2488-3387 Q3290N): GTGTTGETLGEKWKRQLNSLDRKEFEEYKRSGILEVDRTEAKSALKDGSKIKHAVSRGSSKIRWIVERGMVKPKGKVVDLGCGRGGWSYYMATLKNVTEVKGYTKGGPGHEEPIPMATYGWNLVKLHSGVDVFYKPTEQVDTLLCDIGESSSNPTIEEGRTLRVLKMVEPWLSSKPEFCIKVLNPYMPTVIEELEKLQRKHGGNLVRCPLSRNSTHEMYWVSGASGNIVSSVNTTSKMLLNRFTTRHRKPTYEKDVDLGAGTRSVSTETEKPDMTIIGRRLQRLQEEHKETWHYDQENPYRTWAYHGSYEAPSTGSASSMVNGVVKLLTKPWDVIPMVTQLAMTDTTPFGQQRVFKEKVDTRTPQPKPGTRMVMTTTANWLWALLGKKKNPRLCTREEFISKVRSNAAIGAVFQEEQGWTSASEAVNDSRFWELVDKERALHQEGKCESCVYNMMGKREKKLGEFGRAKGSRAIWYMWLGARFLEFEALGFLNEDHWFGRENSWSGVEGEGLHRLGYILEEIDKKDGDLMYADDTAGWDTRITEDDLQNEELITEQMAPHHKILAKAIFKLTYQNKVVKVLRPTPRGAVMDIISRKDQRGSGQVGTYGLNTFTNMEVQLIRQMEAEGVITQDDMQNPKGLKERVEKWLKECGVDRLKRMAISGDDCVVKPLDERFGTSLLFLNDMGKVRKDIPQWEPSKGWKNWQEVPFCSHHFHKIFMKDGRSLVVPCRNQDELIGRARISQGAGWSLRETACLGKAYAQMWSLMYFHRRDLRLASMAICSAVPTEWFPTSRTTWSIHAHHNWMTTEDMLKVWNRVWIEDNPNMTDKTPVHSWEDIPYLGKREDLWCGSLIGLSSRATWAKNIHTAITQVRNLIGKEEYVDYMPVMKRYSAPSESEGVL

## COc1cccc(S(=O)(=O)NC(=O)c2cc(-c3ccc(C#CCO)s3)c(OC)cc2OC)c1 [Compound 27]
[1]
  Tm change compared to DMSO control, DENV4 FL NS5 WT: 1 °C
  Protein melting temperature, Tm, DENV4 FL NS5 WT: 38.5 °C
  Protein melting temperature Tm with compound, FL NS5: 46.5 °C
[2]
  Tm change compared to DMSO control, DENV2 FL NS5 E802D: 0 °C
  Protein melting temperature, Tm, DENV2 FL NS5 E802D: 36 °C
[3]
  EC50: 41.7 µM
[4]
  EC50: 1.8 ± 0.2 µM
[5]
  activity in WNV replicon cell-based assay: inactive
[6]
  EC50: 2.2 µM
[7]
  EC50: 1.8 ± 0.1 µM
[8]
  CC50: > 50 µM
[9]
  Tm change compared to DMSO control, DENV4 FL NS5 Q802N: 0.5 °C
  Protein melting temperature, Tm, DENV4 FL NS5 Q802N: 37.5 °C
[10]
  EC50: > 50 µM
[11]
  Protein melting temperature Tm with compound, FL NS5 from BHK-21 DENV2-NGC replicon cell lysate: 47.5 °C
[12]
  SPR % Rmax: 66.8%

## COc1cc(OC)c(-c2ccc(C#CCO)s2)cc1C(=O)NS(=O)(=O)c1cccc2cccnc12 [Compound 29]
[1]
  Tm change compared to DMSO control, DENV4 FL NS5 WT: 3 °C
  Protein melting temperature, Tm, DENV4 FL NS5 WT: 40.5 °C
  Protein melting temperature Tm with compound, FL NS5: 51.5 °C
[2]
  Tm change compared to DMSO control, DENV2 FL NS5 E802D: 2.0 °C
  Protein melting temperature, Tm, DENV2 FL NS5 E802D: 38 °C
[3]
  EC50: 34 µM
[4]
  EC50: 10.2 µM
[5]
  activity in WNV replicon cell-based assay: inactive
[6]
  EC50: 6 µM
[7]
  EC50: 6.3 ± 0.9 µM
[8]
  CC50: > 50 µM
[9]
  Tm change compared to DMSO control, DENV4 FL NS5 Q802N: 1.5 °C
  Protein melting temperature, Tm, DENV4 FL NS5 Q802N: 38.5 °C
[10]
  EC50: > 50 µM
[11]
  Protein melting temperature Tm with compound, FL NS5 from BHK-21 DENV2-NGC replicon cell lysate: 50 °C
[12]
  SPR % Rmax: 20.9%
